Laboratory results as given in patent publication US8461305B2, “L-fucose α1→6 specific lectin” (J-Oil Mills, Inc., priority 2008, dated 2013).

Test: frontal affinity chromatography (FAC), association constant to PA sugar chains without L-fucose
Assay type: binding
Experimental: The following section will describe a method of calculating an association constant by frontal affinity chromatography (FAC). This method is based on the following principle. […] Then, the elution front end (front) is observed immediately. When there is an affinity with lectin, the elution of the sugar chain is delayed.
The preparation of a lectin column used in the apparatus is performed in the method as described below. 1. Purified lectin is dissolved in 0.1 to 0.2M of NaHCO3 buffer solution (pH 8.3 to 8.5). 2. The lectin is immobilized, via a lectin primary amino group, a carrier such as NHS activated sepharose. 3. Then, the lectin is blocked by Tris buffer solution including primary amine or ethanolamine for example. 4. Lectin-sepharose is suspended in 10 mM Tris buffer, including 0.8% of NaCl (pH 7.4, TBS). Then, lectin immobilized resin is filled in a miniature column (φ2 mm×10 mm, 31.4 μl). 5. The miniature column in which the lectin immobilized resin is filled is protected by a holder and the lectin column is connected to an FAC automatic analysis apparatus (FAC-1, SHIMADZU CORPORATION).
Then, the elution of the PA sugar chain from the column is detected by a fluorescence detector (excitation wavelength/fluorescence wavelength: 310 nm/380 nm).
Based on the detection data, by using the elution front end (Vo) of the sugar chain (PA rhamnose) not interacting with lectin as a reference, the delay (V−Vo) of the elution front end (V) of a sugar chain interacting with lectin is calculated as an interaction strength. Then, based on the following FAC criteria expressions, the association constant (Ka) between the sugar chain and lectin is calculated based on V−Vo and Bt. If the interaction strength (V−Vo value) and the association constant are higher, a higher affinity is caused between lectin and an L-fucose α1→6 sugar chain.
[In the formula, A means substance used for the elution, Ao means the initial concentration of the substance A, B means a immobilized ligand, V means the elution volume, Vo means the elution front end volume of the substance not interacting with the immobilized ligand B at all, Bt means an effective ligand amount, Kd means a dissociation constant (an inverse of the association constant)].
Pyridylaminated (PA) sugar chains shown in FIG. 1 and FIG. 2 were used to frontal affinity chromatography (FAC) analysis. PA sugars were purchased from TAKARA BIO INC., SEIKAGAKU BIOBUSINESS CORPORATION, and Masuda Chemical Industries co., LTD. PA sugar were also obtained by pyridylaminating, by GlycoTAG®(TAKARA BIO INC.), an unlabeled sugar chain or a sugar chain obtained by subjecting a sugar chain to enzyme digestion for example.
Lectin was dissolved in 0.2 M NaHCO3 buffer solution (pH 8.3) including 0.5 M NaCl and coupled to the NHS-activated sepharose (GE Healthcare Bioscience) by following the manufacturer's instructions. Then, lectin immobilized sepharose was suspended in 10 mM Tris buffer (pH 7.4, TBS) including […] and the resultant matter was filled in a miniature column (φ2 mm×10 mm, 31.4 μl).
Frontal affinity chromatography was performed using FAC automatic analysis apparatus (FAC-1, SHIMADZU CORPORATION). In particular, the above-prepared lectin column was inserted to a stainless steel holder and the holder was connected to FAC-1 apparatus. The flow rate and the column temperature were maintained at 0.125 ml/min and 25 degrees C., respectively. After the miniature column was equilibrated by the TBS, an excessive volume (0.5 ml to 4 ml) of a PA sugar chain (3.75 nM or 7.5 nM) was continuously inputted to the column using an automatic sampling apparatus.
The fluorescent strength of the eluate of the PA sugar (excitation wavelength of 310 nm and fluorescence wavelength of 380 nm) was monitored to measure the interaction strength [a difference of the front end eluate to the standard oligosaccharide (PA rhamnose): V−V0]. […]

Lepista sordida lectin [LSL, novel lectin purified from the mushroom Lepista sordida]
binding to sugar chain not having L-fucose (FAC): not detected at all
association constant Ka (Sugar chain No. 001, sugar chain not having L-fucose): <1000 M⁻¹
association constant Ka (Sugar chain No. 002, sugar chain not having L-fucose): <1000 M⁻¹
association constant Ka (Sugar chain No. 003, sugar chain not having L-fucose): <1000 M⁻¹
association constant Ka (Sugar chain No. 004, sugar chain not having L-fucose): <1000 M⁻¹
association constant Ka (Sugar chain No. 005, sugar chain not having L-fucose): <1000 M⁻¹
association constant Ka (Sugar chain No. 006, sugar chain not having L-fucose): <1000 M⁻¹
association constant Ka (Sugar chain No. 007, sugar chain not having L-fucose): <1000 M⁻¹
association constant Ka (Sugar chain No. 008, sugar chain not having L-fucose): <1000 M⁻¹
association constant Ka (Sugar chain No. 009, sugar chain not having L-fucose): <1000 M⁻¹
association constant Ka (Sugar chain No. 010, sugar chain not having L-fucose): <1000 M⁻¹
association constant Ka (Sugar chain No. 011, sugar chain not having L-fucose): <1000 M⁻¹
association constant Ka (Sugar chain No. 012, sugar chain not having L-fucose): <1000 M⁻¹
association constant Ka (Sugar chain No. 013, sugar chain not having L-fucose): <1000 M⁻¹
association constant Ka (Sugar chain No. 014, sugar chain not having L-fucose): <1000 M⁻¹
association constant Ka (Sugar chain No. 101, sugar chain not having L-fucose): <1000 M⁻¹
association constant Ka (Sugar chain No. 103, sugar chain not having L-fucose): <1000 M⁻¹
association constant Ka (Sugar chain No. 104, sugar chain not having L-fucose): <1000 M⁻¹
association constant Ka (Sugar chain No. 105, sugar chain not having L-fucose): <1000 M⁻¹
association constant Ka (Sugar chain No. 107, sugar chain not having L-fucose): <1000 M⁻¹
association constant Ka (Sugar chain No. 108, sugar chain not having L-fucose): <1000 M⁻¹
association constant Ka (Sugar chain No. 301, sugar chain not having L-fucose): <1000 M⁻¹
association constant Ka (Sugar chain No. 304, sugar chain not having L-fucose): <1000 M⁻¹
association constant Ka (Sugar chain No. 305, sugar chain not having L-fucose): <1000 M⁻¹
association constant Ka (Sugar chain No. 307, sugar chain not having L-fucose): <1000 M⁻¹
association constant Ka (Sugar chain No. 308, sugar chain not having L-fucose): <1000 M⁻¹
association constant Ka (Sugar chain No. 313, sugar chain not having L-fucose): <1000 M⁻¹
association constant Ka (Sugar chain No. 314, sugar chain not having L-fucose): <1000 M⁻¹
association constant Ka (Sugar chain No. 323, sugar chain not having L-fucose): <1000 M⁻¹
association constant Ka (Sugar chain No. 501, sugar chain not having L-fucose): <1000 M⁻¹
association constant Ka (Sugar chain No. 502, sugar chain not having L-fucose): <1000 M⁻¹
association constant Ka (Sugar chain No. 503, sugar chain not having L-fucose): <1000 M⁻¹
association constant Ka (Sugar chain No. 504, sugar chain not having L-fucose): <1000 M⁻¹
association constant Ka (Sugar chain No. 701, sugar chain not having L-fucose): <1000 M⁻¹
association constant Ka (Sugar chain No. 702, sugar chain not having L-fucose): <1000 M⁻¹
association constant Ka (Sugar chain No. 703, sugar chain not having L-fucose): <1000 M⁻¹
association constant Ka (Sugar chain No. 704, sugar chain not having L-fucose): <1000 M⁻¹
association constant Ka (Sugar chain No. 705, sugar chain not having L-fucose): <1000 M⁻¹
association constant Ka (Sugar chain No. 706, sugar chain not having L-fucose): <1000 M⁻¹
association constant Ka (Sugar chain No. 707, sugar chain not having L-fucose): <1000 M⁻¹
association constant Ka (Sugar chain No. 708, sugar chain not having L-fucose): <1000 M⁻¹
association constant Ka (Sugar chain No. 709, sugar chain not having L-fucose): <1000 M⁻¹
association constant Ka (Sugar chain No. 710, sugar chain not having L-fucose): <1000 M⁻¹
association constant Ka (Sugar chain No. 711, sugar chain not having L-fucose): <1000 M⁻¹
association constant Ka (Sugar chain No. 712, sugar chain not having L-fucose): <1000 M⁻¹
association constant Ka (Sugar chain No. 713, sugar chain not having L-fucose): <1000 M⁻¹
association constant Ka (Sugar chain No. 715, sugar chain not having L-fucose): <1000 M⁻¹
association constant Ka (Sugar chain No. 716, sugar chain not having L-fucose): <1000 M⁻¹
association constant Ka (Sugar chain No. 717, sugar chain not having L-fucose): <1000 M⁻¹
association constant Ka (Sugar chain No. 724, sugar chain not having L-fucose): <1000 M⁻¹
association constant Ka (Sugar chain No. 725, sugar chain not having L-fucose): <1000 M⁻¹
association constant Ka (Sugar chain No. 728, sugar chain not having L-fucose): <1000 M⁻¹
association constant Ka (Sugar chain No. 732, sugar chain not having L-fucose): <1000 M⁻¹
association constant Ka (Sugar chain No. 733, sugar chain not having L-fucose): <1000 M⁻¹
association constant Ka (Sugar chain No. 734, sugar chain not having L-fucose): <1000 M⁻¹
association constant Ka (Sugar chain No. 735, sugar chain not having L-fucose): <1000 M⁻¹
association constant Ka (Sugar chain No. 736, sugar chain not having L-fucose): <1000 M⁻¹
association constant Ka (Sugar chain No. 737, sugar chain not having L-fucose): <1000 M⁻¹
association constant Ka (Sugar chain No. 738, sugar chain not having L-fucose): <1000 M⁻¹
association constant Ka (Sugar chain No. 901, sugar chain not having L-fucose): <1000 M⁻¹
association constant Ka (Sugar chain No. 902, sugar chain not having L-fucose): <1000 M⁻¹
association constant Ka (Sugar chain No. 903, sugar chain not having L-fucose): <1000 M⁻¹
association constant Ka (Sugar chain No. 905, sugar chain not having L-fucose): <1000 M⁻¹
association constant Ka (Sugar chain No. 907, sugar chain not having L-fucose): <1000 M⁻¹
